Data on 3 compounds can be found in patent US20260124215A1, “METHODS OF TREATMENT OF INTESTINAL INFECTIONS” (THE FRANCIS CRICK INSTITUTE LIMITED, priority 2022, published 2026).

The test system of experiment [1] is Cryptosporidium parvum. Put plainly: In vitro IC50 curves in Cryptosporidium-infected HCT-8 intestinal epithelial cell monolayers (imaging of total and female parasites). The settings on record: infected intestinal epithelial cells; development measured by % female parasites in total parasites; figure legends. The format is cell-based. How it is done: HCT-cells (ATCC; CCL-244) were seeded in a 96-well plate at a density of 30,000 cells/well in complete media (RPMI with 10% FCS) and allowed to grow for 48 hours. Cryptosporidium parvum oocysts (Bunchgrass Farms; Dreary Idaho, USA) were prepared for infection by bleach treating (1% sodium hypochlorite) on ice for 5 minutes to remove bacterial contaminants, followed by a wash step and incubation in 0.75% sodium taurocholate for 10 minutes at 37° C. to trigger excystation. Oocysts were resuspended in infection media (RPMI with 1% FCS) and added to cells in 100 uL media (20,000 oocysts/well). A 10 mM solution of lapaquistat acetate (MedChem Express; Cat. No. HY-16274-1 mg) was created using DMSO as the solvent. From this stock, a half-logarithmic (3.16-fold) dilution series was created in infection media, at 2× the intended final concentration. 3 hours post-infection, 100 uL of each drug dilution was added to the wells. Each drug concentration comprised 6 technical replicates. […] The plate was then imaged using a Cytation cell imaging multimode reader (BioTek) to count host nuclei, total number of parasites, and the number of female parasites among them. […]

In experiment [2] the test system is Cryptosporidium. The conditions noted are these: malnourished and immunocompromised patients; cited from earlier work.
In experiment [3] the test system is Cryptosporidium parasites. Put plainly: Lapaquistat/Lovastatin combination in Cryptosporidium-infected HCT-8 cells (infection ratio, Opera Phenix). The format is cell-based. The conditions noted are these: HCT-8, 48 hours of infection, infection ratio = number of parasites/number of host cells, drug alone, read-out: IC50 (ability to limit Cryptosporidium growth). Here is the method:
Intestinal epithelial cells (HCT-8) were infected with Cryptosporidium parasites and treated with increasing concentrations of Lapaquistat acetate or Lovastatin, either alone or in combination. After 48 hours of infection, cells were then fixed and stained with a lectin that specifically marks parasites and a Hoechst dye that specifically labels DNA. Cells and parasites were then visualized with an Opera Phenix imaging microscope and infection ratio was calculated as number of parasites/number of host cells.

Take `F/C(COc1ccc2c(c1)[nH]c1ccccc12)=C1/CN2CCC1CC2` [YM-53601]: the “efficacy against parasite growth and parasite development” value in experiment [1] is recorded as “show efficacy”.

As to `CC(=O)Oc1ccccc1C(=O)Nc1ncc([N+](=O)[O-])s1` [nitazoxanide], in experiment [2], the efficacy in patients result is recorded as “limited efficacy”.

Usually IC50 stands for the concentration that gives 50% inhibition. For the compound `CC[C@H](C)C(=O)O[C@H]1C[C@@H](C)C=C2C=C[C@H](C)[C@H](CC[C@@H]3C[C@@H](O)CC(=O)O3)[C@H]21` [Lovastatin], the 50% inhibitory concentration (IC50) in experiment [3] stood at 4.1 µM.
